Consider 2 compounds from patent US7741464B2, “Compositions and methods of using CRMP-1 and its fragments for treating cancer” (Advpharma Inc., priority 2007, dated 2010).

The test system of test [1] is H520 stable transfectants. The experiment in a line: Chemosensitivity (MTT cytotoxicity) of stable transfectants. The test is classed as cell-based. Conditions: Homo sapiens, read-out: IC50 of chemical agent. An excerpt:
(§1) Three human cancer cell lines, including lung cancer cell line H520 and two human prostate cancer cell lines (PC-3 and DU145) were applied for selection of stable transfectants. Four expression plasmids, including pNCRMP1, pNCN1, pNCN3, and pNCN4, and the pCI-neo vector (as control plasmid) were used for transfection, respectively. The general cultivation condition and transfection procedures were the same as described in Example 3. The transfected cells were further cultivated under the same conditions as their parental cell lines and selected with 0.6-1 mg antibiotic G418 per ml (Kao et al., Oncogene 16: 546-554 (1998); Xiaolin et al, Cancer Research 65: 9762-9770 (2005)).
(§2) Three agents, including caffeic acid phenethyl ester (CAPE; Sigma, US), Adriamycin™ (doxorubicin) (Pharmacia & Upjohn S.P.A. Milan, Italy), and paclitaxel (Taxol; Bristol-Myers Squibb Co., Wallingford, Conn.), were dissolved in DMSO (dimethyl sulfoxide; Sigma) for preparation of stock solution, respectively. A serial dilution was prepared with DPBS buffer for chemosensitivity tests. The human lung squamous carcinoma stable transfectants H520 were treated with both CAPE and Adriamycin™ (doxorubicin) for four different concentrations, e.g. 0.05, 0.01, 0.002, and 0.0004 mM, while the administering of paclitaxel was performed at different concentrations, e.g. 1000, 200, 40, and 8 nM. Both types of prostate stable transfectants were only treated with paclitaxel for eight concentrations ranging from 0.1 mM to 1.28 nM with 1/5 dilution each step.
(§3) MTT (3-(4,5-dimethylthiazol-2-yl)-2,5-diphenyltetrazolium bromide; Sigma, Inc.) assay (Monks et al., J. Natl. Cancer Inst. 83:757-766 (1991); Paull et al, J. Natl. Cancer Inst. 81:1088-1092 (1989)) was applied for studying the cytotoxic effect of indicated agent. The absorbance was measured both at 545 nm and at 690 nm (served as reference) using the 96-well spectrophotometer reader (Emax, Molecular Device Inc., California, US) (Chen et al., Yi Xue Za Zhi (Taipei) 46:7-16 (1990)). The relative growth inhibition was calculated as follows: Relative growth inhibition=100%×(1−(OD545nm (Treated cells)−OD690nm(Treated cells))÷(OD545nm(untreated cells)−OD690nm(untreated cells)))
(§4) The 50% inhibition concentration (IC50) was determined after graphical plotting of spectrophotometric measurements and interpolation by EXCEL software.

Test [2] deals with DU145 stable transfectants. The description is as above. Conditions: Homo sapiens, read-out: IC50 of chemical agent. It counts as cell-based.
Description: as §1, §2, §3, §4

Test [3] deals with PC-3 transient transfectants. The experiment in a line: Chemosensitivity of transient transfectants (cell counting). It counts as cell-based. Conditions: Homo sapiens, 72 h, read-out: IC50 of chemical agent. As to the method: (§5) Six human cancer cell lines, including human colon cancer cell lines Caco-2, CC-M1, DLD-1; human prostate cancer cell lines DU145, PC-3; and human breast cancer cell line MCF-7, were tested in an experiment on improvement of chemosensitivity. Two expression plasmids, pNCRMP1 and pNCN3, and the pCI-neo vector (control plasmid), were used for transfection, respectively. The general cultivation conditions and transfection procedures were the same as described in Example 3.
(§6) Treatment of transient transfected cell lines using chemical agent was immediately performed as follows, and quantification of viable cells was performed by counting using hemocytometer after 3-days incubation at 37° C.: • (1) Three types of transient transfected human colorectal cancer cells were treated with 5-fluorouracil; • (2) The transient transfected human prostate cancer cell line DU145 was treated with Adriamycin™ (doxorubicin), cyclophosphamide and etoposide; • (3) The transient transfected human prostate cancer cell line PC3 was treated with cyclophosphamide, etoposide, and paclitaxel; and, • (4) The transient transfected human breast cancer cell line MCF-7 was treated with Adriamycin™ (doxorubicin) and paclitaxel.

Test [4] concerns MCF-7 transient transfectants. The test is described as above. It counts as cell-based. Conditions: Homo sapiens, MCF7, 72 h, read-out: IC50 of chemical agent. As to the method:
as §5, §6

Test [5] deals with PZ-HPV-7 cells. The experiment in a line: Chemosensitivity (MTT cytotoxicity) assay. The test is classed as cell-based. Conditions: Homo sapiens; PZ-HPV-7, MTT; read-out: IC50 of chemical agent.
Description: Three agents, including caffeic acid phenethyl ester (CAPE; Sigma, US), Adriamycin™ (doxorubicin) (Pharmacia & Upjohn S.P.A. Milan, Italy), and paclitaxel (Taxol; Bristol-Myers Squibb Co., Wallingford, Conn.), were dissolved in DMSO (dimethyl sulfoxide; Sigma) for preparation of stock solution, respectively. A serial dilution was prepared with DPBS buffer for chemosensitivity tests. […] Both types of prostate stable transfectants were only treated with paclitaxel for eight concentrations ranging from 0.1 mM to 1.28 nM with 1/5 dilution each step.
For a further test, the system named is PC-3 cells. The experiment in a line: Cytotoxic effect of recombinant e-rCN3 protein. The test is classed as cell-based, human. Conditions: 5 μM applied twice for 6 hours with an interval of 16 hours. The procedure: (§7) The growth inhibition effect of recombinant e-rCN3 protein was studied with five human cell lines, including the human colon cancer cell line CC-M1, the human breast cancer cell line MCF-7, two human prostate cancer cell lines PC-3 and DU145, and the human prostate epithelium cell line PZ-HPV-7. […] The cytotoxicity assay were performed using MTT method as described by Monks et al. (J. National Cancer Institute 83:757-767 (1991)) or using cell counting-based Hemocytometer method (R. Ian Freshney, WILEY-LISS: 186, 309-312 (2000)) as described in Example 3 and Example 9. Five micromolar (μM) e-rCN3 was applied twice on three prostate cell lines for 6 hours with an interval of 16 hours, while the human colon cancer cell and breast cancer cells were treated with three cycles.

Another test deals with MCF-7 cells. The experiment in a line: Cytotoxic effect of recombinant e-rCN3 protein. The test is classed as cell-based, human. Conditions: 5 μM, three treatment cycles. As to the method: as §7
Test [6] has as its system PZ-HPV-7 cells. The experiment in a line: Cytotoxic effect of recombinant e-rCN3 protein. It counts as cell-based, human. Conditions: 5 μM applied twice for 6 hours with an interval of 16 hours. The procedure:
as §7

The test system of the next test is CC-M1 cells. The experiment in a line: Cytotoxic effect of recombinant e-rCN3 protein. The test is classed as cell-based, human. Conditions: 5 μM, three treatment cycles. The procedure: as §7

Like-named read-outs stand apart in the source and are kept apart here. Where only a bound is given, the exact number is not on record here.

As to `CC(=O)O[C@H]1C(=O)[C@@]2(C)[C@H]([C@H](OC(=O)c3ccccc3)[C@]3(O)C[C@H](OC(=O)[C@H](O)[C@@H](NC(=O)c4ccccc4)c4ccccc4)C(C)=C1C3(C)C)[C@]1(OC(C)=O)CO[C@@H]1C[C@@H]2O` [paclitaxel], the IC50 in [1] (NCI-H520, stable transfectant H520/pCI-neo/1 (control plasmid), MTT) was 31 nM; in test [1] (NCI-H520, stable transfectant H520/pNCN1/1, MTT), 12 nM; in test [1] (NCI-H520, stable transfectant H520/pNCN3/1, MTT), below 8 nM; in test [1] (NCI-H520, stable transfectant H520/pNCN4/1, MTT), below 8 nM; in test [1] (NCI-H520, stable transfectant H520/pNCRMP1/1, MTT) it was 12 nM; in test [2] (DU-145, stable transfectant DU145/pCI-neo/7 (control plasmid), MTT), 8000 nM. Further, the IC50 in [2] (DU-145, stable transfectant DU145/pNCRMP1/2, MTT) is 20 nM; in [3] (transient transfectant PC-3/pCIneo (control plasmid), 3-days incubation), 87 nM; in [3] (transient transfectant PC-3/pNCN3, 3-days incubation), 10 nM; in [3] (transient transfectant PC-3/pNCRMP1, 3-days incubation), 69 nM; in [4] (transient transfectant MCF-7/pCIneo (control plasmid), 3-days incubation), below 1 nM; in test [4] (transient transfectant MCF-7/pNCN3, 3-days incubation), 44 nM. Also, the IC50 in test [4] (transient transfectant MCF-7/pNCRMP1, 3-days incubation) is below 1 nM; in the test on PZ-HPV-7 cells [5], 6530 nM.

As for “e-rCN3: recombinant CN3 domain of hCRMP-1 (amino acids 208 to 480) expressed in E. coli from pE22bCN3”, the growth inhibition effect entry with PC-3 cells was “approximately 40%”; with MCF-7 cells, “over 60%”; in the test on PZ-HPV-7 cells [6], “no growth inhibition effect”; in the test on CC-M1 cells it was “over 60%”.
